Read-outs that look alike come from different tables or passages of the source.
Test system: mouse peritoneal macrophages
Assay: In vitro experiment using mouse peritoneal macrophages: suppression of foaming, cholesterol ester (CE) yield
Format: cell-based
Settings: for inhibitory effect on macrophages (rate of cholesterol ester synthesis), in words: mouse peritoneal macrophages, 5 μM
[1] = test compound 5 μM with liposomes, 16 hours, cholesterol ester yield relative to control without test compound = 100%, smaller value = more potent suppression

Compound | CE yield (%) | CE yield (%) [1] [%] | inhibitory effect on macrophages (rate of cholesterol ester synthesis), in words
1-(5-(benzimidazoyl-2-thio)pentyl)piperidine [Compound 1] | 22 | – | –
1-(5-benzimidazolyl-2-thio)pentyl-1,2,3,4-tetrahydro-quinoline [Compound 34] | 21 | – | –
2-(5-(4-morpholino))-5-chlorobenzimidazole [Compound 20] | – | 25 | –
2-(5-(4-morpholino))-5-methoxybenzimidazole [Compound 19] | – | 24 | –
2-(5-(4-morpholino))-5-methylbenzimidazole [Compound 9] | – | 21 | –
2-(6-(1-(4-cyano-4-phenyl)piperidino)heptyl)-1H-benzimidazole [Compound 57] | 22 | – | –
2-(6-(1-(4-hydroxy-4-phenyl)piperidino)heptyl)-1H-benzimidazole [Compound 58] | 20 | – | –
4-(5-(benzimidazolyl-2-thio)pentyl)morpholine [Compound 2] | – | 18 | –
CCCn1c(SCCCCCN2CCOCC2)nc2ccccc21 [Compound 6, 4-(5-(1-propylbenzimidazolyl-2-thio)pentyl)morpholine] | – | 27 | –
CCC(=O)n1c(SCCCCCN2CCOCC2)nc2ccccc21 [Compound 7, 4-(5-(1-propionylbenzimidazolyl-2-thio)pentyl)morpholine] | – | 22 | –
O=C(CCCCSc1nc2ccccc2[nH]1)N1CCCc2ccccc21 [Compound 33, 1-(5-(4-benzimidazolyl-2-thio)valeryl)-1,2,3,4-tetrahydro-quinoline] | – | 18 | –
c1ccc2[nH]c(SCCOCCN3CCOCC3)nc2c1 [Compound 50, 4-(2-(2-benzimidazoyl-2-thio)ethoxy)ethylmorpholine] | – | 4.6 | –
N#CC1(c2ccccc2)CCN(CCCCCOc2nc3ccccc3[nH]2)CC1 [Compound 55, 1-(5-(benzimidazoyl-2-oxy)pentyl)-4-cyano-4-phenyl-piperidine] | 21 | – | –
CC(C)Oc1cccc(OC(C)C)c1NC(=O)CN1CCN(CCCSc2nc3ccccc3[nH]2)CC1 [Ref. 1, reference compound] | – | 95 | almost no inhibitory effect
CC(C)c1cc(C(C)C)c(NC(=O)CN2CCN(CCSc3nc4ccccc4[nH]3)CC2)c(C(C)C)c1 [Ref. 2, reference compound] | – | 98 | almost no inhibitory effect
CCCCCCN(CCCCCSc1nc2ccccc2[nH]1)C(=O)Nc1ccc(F)cc1F [Ref. 3, reference compound] | – | 78 | almost no inhibitory effect
O=C(CCN1CCCCC1)CSc1nc2ccccc2[nH]1 [Ref. 4, reference compound] | – | 89 | completely inactive
COc1ccc2[nH]c(SCCN3CCNCC3)nc2c1 [Ref. 5, reference compound] | – | 102 | completely inactive

— patent US6815455B1, “Benzimidazole compounds and drugs containing the same” (Fuji Photo Film Co., Ltd., priority 1999, dated 2004)
